Source: EP4768499A1, “MACROCYCLIC PEPTIDE COMPOUND HAVING CELL MEMBRANE PERMEABILITY AND METABOLIC STABILITY, AND LIBRARY CONTAINING SAME” (Chugai Seiyaku Kabushiki Kaisha, priority 2023, dated 2025)
Starred links: 1 amine or outer side, 2 acyl side, 3 side chain; linkers in the order of their positions; H or OH if unused. Positions of bridges follow the written chain, without caps; N, C: chain ends. Non-standard residues stand in square brackets, D forms with d. Residues, ends and D or L forms follow the SMILES beside them. *: point of attachment. NMeF = CN[C@@H](Cc1ccccc1)C(=O)O; NMeGABA = CN(CCCC(=O)[*:2])[*:1]; NMeI = CC[C@H](C)[C@H](NC)C(=O)O; NMeT = CN[C@H](C(=O)O)[C@@H](C)O; hPhe = N[C@@H](CCc1ccccc1)C(=O)O; NMeβAla = CN(CCC(=O)[*:2])[*:1]; NMeL = CN[C@@H](CC(C)C)C(=O)O; dNMeV = CN[C@@H](C(=O)O)C(C)C; NMeV = CN[C@H](C(=O)O)C(C)C; NMeAbu = CC[C@H](NC)C(=O)O; NMeA = CN[C@@H](C)C(=O)O; Piperidide = C1CCN(*)CC1; Abu = CC[C@H](N)C(=O)O; NBuGly = CCCCNCC(=O)O; βAla = NCCC(=O)O; Sar = CNCC(=O)O; tBu = CC(C)(C)*

Columns and labels:
[1] = Metabolic stability test: liver microsomal stability assay; type: in vitro ADME, mouse; details: mouse liver microsomes 0.5 mg protein/mL, compound 1 µM; for microsomal CLint at 1 µM: male, pH 7.4, presence of NADPH, read-out: Mouse Hepatic Microsome CLh,int NADPH(+); for Mouse Hepatic Microsome CLh,int NADPH(-): absence of NADPH
[2] = Membrane permeability test using Caco-2 cells with preincubation; type: in vitro ADME; details: Caco-2; preincubation 20 to 24 hours; Apical FaSSIF/HBSS pH 6.0, Basal HBSS 4% BSA pH 7.4; 180 minutes; read-out: Caco2 Papp
Caco-2 cells = test: as above; type: in vitro ADME; details: Caco-2 cells, preincubation 20 to 24 hours; apical FaSSIF/HBSS 1% DMSO pH 6.0, basal HBSS 4% BSA pH 7.4; basal sample at 180 minutes

Row | microsomal CLint at 1 µM [1] | Mouse Hepatic Microsome CLh,int NADPH(-) [1] | Papp A→B [2] | Caco2 Papp (10^-6 cm/sec) (Caco-2 cells) | Compound
1 | 36 µL/min/mg | 36.2 µL/min/mg Protein | 0.2 ×10⁻⁶ cm/s | 0.20 10^-6 cm/sec | CC[C@H](C)[C@@H]1NC(=O)[C@H](CC(C)C)N(C)C(=O)[C@H](CC(C)C)NC(=O)[C@H](C)N(C)C(=O)C[C@@H](C(=O)N2CCCCC2)NC(=O)[C@H](CC(C)C)NC(=O)[C@@H]2CCCN2C(=O)[C@H](CC(C)C)N(C)C(=O)[C@H]([C@@H](C)O)NC(=O)[C@H]([C@@H](C)CC)N(C)C(=O)[C@H](Cc2ccccc2)N(C)C(=O)[C@H](C)NC(=O)[C@H](Cc2ccccc2)N(C)C1=O [pd104] ([NMeA]L[NMeL]I[NMeF]A[NMeF][NMeI]T[NMeL]PLD-Piperidide; lactam N-13)
2 | 28.9 µL/min/mg | 22.7 µL/min/mg Protein | 0.11 ×10⁻⁶ cm/s | 0.11 10^-6 cm/sec | CC[C@@H]1NC(=O)[C@H](Cc2ccccc2)N(C)C(=O)[C@H](CC(C)C)NC(=O)CNC(=O)[C@H]([C@@H](C)O)N(C)C(=O)[C@H](CC(C)C)N(C)C(=O)[C@H]([C@@H](C)CC)NC(=O)[C@H](Cc2ccccc2)N(C)C(=O)CN(C)C(=O)C[C@@H](C(=O)N2CCCCC2)NC(=O)[C@H](C(C)C)N(C)C(=O)[C@H](CC(C)C)NC(=O)[C@H](C)N(C)C1=O [pd105] ([Sar][NMeF]I[NMeL][NMeT]GL[NMeF][Abu][NMeA]L[NMeV]D-Piperidide; lactam N-13)
3 | 32.7 µL/min/mg | 37.4 µL/min/mg Protein | 0.24 ×10⁻⁶ cm/s | 0.24 10^-6 cm/sec | CC[C@@H]1NC(=O)[C@H](C(C)C)N(C)C(=O)[C@H](CC(C)C)NC(=O)[C@H](CC(C)C)N(C)C(=O)[C@H]([C@@H](C)O)NC(=O)CN(C)C(=O)[C@H]([C@@H](C)CC)NC(=O)[C@H](Cc2ccccc2)N(C)C(=O)[C@H](CC(C)C)N(C)C(=O)C[C@@H](C(=O)N2CCCCC2)NC(=O)[C@H](Cc2ccccc2)N(C)C(=O)[C@H](COC(C)(C)C)NC(=O)[C@@H]2CCCN2C1=O [pd106] ([NMeL][NMeF]I[Sar]T[NMeL]L[NMeV][Abu]PS(tBu)[NMeF]D-Piperidide; lactam N-13)
4 | 36.3 µL/min/mg | 31.5 µL/min/mg Protein | 0.81 ×10⁻⁶ cm/s | 0.81 10^-6 cm/sec | CC(C)C[C@@H]1NC(=O)[C@H](CC(C)C)N(C)C(=O)[C@H](C(C)C)N(C)C(=O)[C@H](CCc2ccccc2)NC(=O)[C@H]([C@@H](C)O)N(C)C(=O)[C@@H](C(C)C)NC(=O)C[C@@H](C(=O)N2CCCCC2)NC(=O)[C@H](C(C)C)N(C)C(=O)[C@H](CC(C)C)NC(=O)[C@H](Cc2ccccc2)N(C)C(=O)[C@@H]2CCCN2C(=O)[C@H](CC(C)C)N(C)C(=O)CN(C)C1=O [pd107] ([dV][NMeT][hPhe][NMeV][NMeL]L[Sar][NMeL]P[NMeF]L[NMeV]D-Piperidide; lactam N-13)
5 | 40.6 µL/min/mg | 30.3 µL/min/mg Protein | 0.83 ×10⁻⁶ cm/s | 0.83 10^-6 cm/sec | CC[C@@H]1NC(=O)[C@H](Cc2ccccc2)N(C)C(=O)[C@H](C)N(C)C(=O)[C@H](CC(C)C)N(C)C(=O)[C@H](CC(C)C)NC(=O)CCCN(C)C(=O)C[C@@H](C(=O)N2CCCCC2)NC(=O)[C@H](CC(C)C)N(C)C(=O)[C@H](C)N(C)C(=O)[C@H]([C@@H](C)O)NC(=O)[C@H](CC(C)C)N(C)C(=O)[C@H](COC(C)(C)C)NC(=O)[C@H](Cc2ccccc2)N(C)C1=O [pd109] ([NMeGABA]L[NMeL][NMeA][NMeF][Abu][NMeF]S(tBu)[NMeL]T[NMeA][NMeL]D-Piperidide; lactam N-13)
6 | 38.5 µL/min/mg | 30.5 µL/min/mg Protein | 0.43 ×10⁻⁶ cm/s | 0.43 10^-6 cm/sec | CC[C@H](C)[C@@H]1NC(=O)[C@H](C)N(C)C(=O)[C@H]([C@@H](C)O)NC(=O)[C@H](Cc2ccccc2)N(C)C(=O)[C@H](COC(C)(C)C)NC(=O)[C@H](CC(C)C)N(C)C(=O)CN(C)C(=O)[C@H](Cc2ccccc2)N(C)C(=O)[C@H]([C@@H](C)CC)NC(=O)[C@H](CC(C)C)N(C)C(=O)CCN(C)C(=O)C[C@@H](C(=O)N2CCCCC2)NC(=O)[C@H](CC(C)C)N(C)C1=O [pd110] ([NMeβAla][NMeL]I[NMeF][Sar][NMeL]S(tBu)[NMeF]T[NMeA]I[NMeL]D-Piperidide; lactam N-13)
7 | 18.7 µL/min/mg | 28.4 µL/min/mg Protein | 0.04 ×10⁻⁶ cm/s | 0.04 10^-6 cm/sec | CCCCN1CC(=O)N[C@@H](CC(C)C)C(=O)N(C)[C@@H]([C@@H](C)CC)C(=O)N(C)[C@@H]([C@@H](C)O)C(=O)N(C)[C@@H](Cc2ccccc2)C(=O)N[C@@H]([C@@H](C)CC)C(=O)N(C)[C@@H](CC(C)C)C(=O)N[C@H](C(=O)N2CCCCC2)CC(=O)N(C)[C@@H](C)C(=O)N[C@@H](CC(C)C)C(=O)N(C)[C@@H](CC(C)C)C(=O)N(C)[C@@H](Cc2ccccc2)C(=O)N[C@@H](CC)C1=O [pd111] ([NMeA]L[NMeL][NMeF][Abu][NBuGly]L[NMeI][NMeT][NMeF]I[NMeL]D-Piperidide; lactam N-13)
8 | 30.5 µL/min/mg | 21.2 µL/min/mg Protein | 0.35 ×10⁻⁶ cm/s | 0.35 10^-6 cm/sec | CC[C@@H]1NC(=O)[C@H](CC(C)C)N(C)C(=O)[C@H](Cc2ccccc2)N(C)C(=O)[C@H](CC(C)C)N(C)C(=O)[C@H](C)NC(=O)C[C@@H](C(=O)N2CCCCC2)NC(=O)[C@H](C(C)C)N(C)C(=O)[C@@H]2CCCN2C(=O)CCN(C)C(=O)[C@H](CC(C)C)NC(=O)[C@H]([C@@H](C)CC)N(C)C(=O)[C@H]([C@@H](C)O)NC(=O)[C@H](Cc2ccccc2)N(C)C1=O [pd112] (A[NMeL][NMeF][NMeL][Abu][NMeF]T[NMeI]L[NMeβAla]P[NMeV]D-Piperidide; lactam N-13)
9 | 24.4 µL/min/mg | 16.4 µL/min/mg Protein | 0.2 ×10⁻⁶ cm/s | 0.20 10^-6 cm/sec | CC[C@H](C)[C@H]1C(=O)N[C@@H]([C@@H](C)O)C(=O)N(C)CC(=O)N(C)[C@@H](CC(C)C)C(=O)N[C@@H](CC(C)C)C(=O)N[C@H](C(=O)N2CCCCC2)CC(=O)N(C)[C@@H](C)C(=O)N[C@@H](CC(C)C)C(=O)N(C)[C@@H](CC(C)C)C(=O)N(C)CCC(=O)N(C)[C@@H](Cc2ccccc2)C(=O)NCCC(=O)N(C)[C@@H](Cc2ccccc2)C(=O)N1C [pd113] ([NMeA]L[NMeL][NMeβAla][NMeF][βAla][NMeF][NMeI]T[Sar][NMeL]LD-Piperidide; lactam N-13)
10 | 35.6 µL/min/mg | 29.2 µL/min/mg Protein | 0.16 ×10⁻⁶ cm/s | 0.16 10^-6 cm/sec | CC[C@H](C)[C@@H]1NC(=O)[C@H](Cc2ccccc2)N(C)C(=O)CN(C)C(=O)C[C@@H](C(=O)N2CCCCC2)NC(=O)[C@H]([C@@H](C)CC)N(C)C(=O)[C@H](COC(C)(C)C)NC(=O)[C@@H]2CCCN2C(=O)[C@H](CCc2ccccc2)NC(=O)[C@H](CC)N(C)C(=O)[C@H](CC(C)C)NC(=O)[C@H](CC(C)C)N(C)C(=O)[C@H]([C@@H](C)O)N(C)C(=O)[C@H](CC(C)C)N(C)C1=O [pd114] ([Sar][NMeF]I[NMeL][NMeT][NMeL]L[NMeAbu][hPhe]PS(tBu)[NMeI]D-Piperidide; lactam N-13)
11 | 24.9 µL/min/mg | 12.3 µL/min/mg Protein | 0.09 ×10⁻⁶ cm/s | 0.09 10^-6 cm/sec | CC[C@H](C)[C@@H]1NC(=O)[C@H](CC(C)C)N(C)C(=O)CN(C)C(=O)C[C@@H](C(=O)N2CCCCC2)NC(=O)[C@H](C)N(C)C(=O)CNC(=O)[C@H](C(C)C)N(C)C(=O)[C@H](C)N(C)C(=O)[C@H](Cc2ccccc2)N(C)C(=O)[C@H](CC(C)C)NC(=O)[C@H](Cc2ccccc2)N(C)C(=O)[C@H]([C@@H](C)O)NC(=O)[C@H](CC(C)C)N(C)C1=O [pd115] ([Sar][NMeL]I[NMeL]T[NMeF]L[NMeF][NMeA][NMeV]G[NMeA]D-Piperidide; lactam N-13)
12 | 19.2 µL/min/mg | 14.9 µL/min/mg Protein | 0.19 ×10⁻⁶ cm/s | 0.19 10^-6 cm/sec | CC(C)C[C@@H]1NC(=O)[C@H]([C@@H](C)O)N(C)C(=O)[C@@H](C(C)C)NC(=O)C[C@@H](C(=O)N2CCCCC2)NC(=O)[C@H](C(C)C)N(C)C(=O)[C@H](C)N(C)C(=O)[C@H](Cc2ccccc2)N(C)C(=O)[C@@H]2CCCN2C(=O)[C@H](CC(C)C)N(C)C(=O)CN(C)C(=O)[C@H](CCc2ccccc2)NC(=O)[C@H](CC(C)C)N(C)C(=O)[C@H](C(C)C)N(C)C1=O [pd116] ([dV][NMeT]L[NMeV][NMeL][hPhe][Sar][NMeL]P[NMeF][NMeA][NMeV]D-Piperidide; lactam N-13)

Row | Compound | microsomal CLint at 1 µM [1] | Mouse Hepatic Microsome CLh,int NADPH(-) [1] | Papp A→B [2] | Caco2 Papp (10^-6 cm/sec) (Caco-2 cells)
13 | CC(C)C[C@@H]1NC(=O)[C@H](C(C)C)N(C)C(=O)[C@H](Cc2ccccc2)N(C)C(=O)[C@H](CC(C)C)NC(=O)[C@H](CC(C)C)N(C)C(=O)[C@H](C)N(C)C(=O)[C@H]([C@@H](C)O)NC(=O)[C@H](CC(C)C)N(C)C(=O)[C@H](C(C)C)N(C)C(=O)[C@H](CC(C)C)NC(=O)[C@H](Cc2ccccc2)N(C)C(=O)[C@@H](C(C)C)N(C)C(=O)C[C@@H](C(=O)N2CCCCC2)NC1=O [pd108] ([dNMeV][NMeF]L[NMeV][NMeL]T[NMeA][NMeL]L[NMeF][NMeV]LD-Piperidide; lactam N-13) | 39.9 µL/min/mg | 35.5 µL/min/mg Protein | 0.03 ×10⁻⁶ cm/s | 0.03 10^-6 cm/sec
